Measurements published in patent US20050020516A1, “Effects of combined administration of farnesyl transferase inhibitors and signal transduction inhibitors” (Whitehead Institute for Biomedical Research, priority 2000, published 2005).
pIC50: −log10 of the molar value.

How the values were obtained:
[1] = tested on: parental BaF3-BCR/ABL cells; assay: Apoptosis by annexin V staining (ApoAlert Annexin V kit, FACS); conditions: 2.0 uM SCH66336, 48 hours
Method: (§1) Some cells were lysed and subjected to immunoblotting with caspase-3 antibody (FIG. 8A) or analyzed for annexin V staining (FIG. 8B) by FACS using the Apo-Alert kit (Clontech).
Apoptosis was measured in cells after incubation with drugs by staining for annexin-positive cells using the ApoAlert Annexin V kit (Clontech, Palo Alto, Calif.). Flow cytometry analysis was performed using Cell Quest (Becton Dickinson, Franklin Lakes, N.J.).

[2] = tested on: parental BaF3-BCR/ABL cells; assay: Caspase-3 immunoblotting (cleavage of procaspase-3); conditions: protein lysates of treated cells
Method: as §1
Cells were washed in cold PBS and lysed in NP-40 lysis buffer (1% NP-40, 150 mM NaCl, 20 mM Tris (pH 7.4), 10% glycerol, 10 mM NaVO3, 1 mM ZnCl2, 1 mM MgCl2, and 2 mM PMSF). Approximately 50 ug of protein were separated by SDS-PAGE and electrophoretically transferred to nitrocellulose membrane using standard protocols. Membranes were incubated with primary and secondary antibodies in TBST buffer (20 mM Tris-HCl [pH 7.4], 500 mM NaCl, 0.01% Tween 20) containing 5% dry milk. Immunoreactivity was detected by enhanced chemiluminescence.

[3] = tested on: STI-571 resistant hematopoietic progenitors from CML patients; assay: Methylcellulose hematopoietic colony assay of primary cells from CML patients relapsed on STI-571; assay type: cell-based; conditions: Homo sapiens, read-out: IC50, colony formation of STI-571 resistant hematopoietic progenitors
Method: Numbers are normalized to control (DMSO) and are presented as means +/−S.D. of duplicate plates.
Low density mononucleocytes were isolated from either fresh or cryo-preserved peripheral blood using Lymphoprep (Nycomed, Oslo, Norway). […] All clonogenic assays were performed in duplicate.

[4] = tested on: BaF3-BCR/ABL cells; assay: Soft agar colony formation of BaF3-BCR/ABL cells; assay type: cell-based, murine; conditions: Mus musculus, 240 h; BaF3-BCR/ABL cells in soft agar, colonies counted day 10; read-out: IC50, inhibition of soft agar colony number
[5] = tested on: STI-571 resistant clone of a BaF3-BCR/ABL; assay: Soft agar colony formation of STI-571 resistant BaF3-BCR/ABL clone; conditions: STI-571 resistant BaF3-BCR/ABL clone compared with parental cells
From the text: Macroscopic colonies were counted in duplicate plates on day 10. In some cases colony numbers were normalized by dividing the number of colonies under a given condition by the number of colonies formed in the presence of no drug (DMSO alone).

[6] = tested on: STI-571 sensitive or resistant BCR/ABL positive cell lines (BaF3-BCR/ABL, K562, LAMA-84, AR230); assay: Cell viability by trypan blue dye exclusion; assay type: cell-based; conditions: SCH66336 alone at concentrations up to 5 μM, STI-571 sensitive or resistant cell lines
Method: FIGS. 9A-9E are graphs showing that SCH66336 and STI571 in combination induce apoptosis in STI571 resistant cells. […] Viability of cells was assessed at daily intervals by dye exclusion.

[7] = tested on: STI-571 resistant AR230 cells; assay: Proliferation in liquid culture; assay type: cell-based, human; conditions: STI-571 resistant AR230, similar manner as parental line
[8] = tested on: STI-571 resistant BaF3-BCR/ABL cells; assay: Proliferation in liquid culture, viable cells by dye exclusion; assay type: cell-based, murine; conditions: 0.5 or 1.0 μM STI-571 or increasing concentrations of SCH66336
Method: Viable cells were assessed at daily intervals by dye exclusion.

[9] = tested on: STI-571 resistant K562 cells; assay: Proliferation in liquid culture; assay type: cell-based, human; conditions: STI-571 resistant K562, similar manner as parental line
[10] = tested on: STI-571 resistant LAMA84 cells; assay: Proliferation in liquid culture; assay type: cell-based, human; conditions: STI-571 resistant LAMA84, similar manner as parental line

- pIC50 [3]: 6.30 to 6.60
- pIC50 [4]: ~7.00
SMILES: NC(=O)N1CCC(CC(=O)N2CCC([C@H]3c4ncc(Br)cc4CCc4cc(Cl)cc(Br)c43)CC2)CC1 [SCH66336]
- levels of annexin V staining [1]: Low levels of annexin V staining
- levels of active caspase-3 (immunoblot) [2]: low levels of active caspase-3
- effect on soft agar colony formation of STI-571 resistant clone [5]: as sensitive, if not more so
- effect on cell viability [6]: little effect on cell viability
- effect on proliferation [7]: inhibits the proliferation
- effect on growth / proliferation [8]: dose-dependent inhibition of proliferation
- effect on proliferation [9]: inhibits the proliferation
- effect on proliferation [10]: inhibits the proliferation
